Consider nine compounds from ChEMBL document CHEMBL1144779, “Identification of novel cannabinoid CB1 receptor antagonists by using virtual screening with a pharmacophore model” (J Med Chem, 2008).

In assay [1] the target is T1, Cannabinoid receptor 2 (Homo sapiens, UniProt P34972). Nature of the assay: Displacement of [3H]CP-55940 from human CB2 receptor expressed in CHO cells. It counts as cell-based. For orientation: Loss of bound radioactivity is the signal in a displacement assay; it reports binding, not function.
Assay [2] deals with T2, Cannabinoid receptor 1 (Homo sapiens, UniProt P21554). Nature of the assay: biochemical. It counts as cell-based, HEK293.
Description: Displacement of [3H]CP-55940 from human CB1 receptor expressed in HEK293 cells
For the next assay, the species on record is Homo sapiens. Nature of the assay: Selectivity for human CB1 receptor over human CB2 receptor.
Assay [3] has as its target T2, Cannabinoid receptor 1.
Description: Binding affinity to CB1 receptor
Assay [4] deals with T1, Cannabinoid receptor 2. Description: Binding affinity to CB2 receptor.

T1 sequence (P34972 whole entry): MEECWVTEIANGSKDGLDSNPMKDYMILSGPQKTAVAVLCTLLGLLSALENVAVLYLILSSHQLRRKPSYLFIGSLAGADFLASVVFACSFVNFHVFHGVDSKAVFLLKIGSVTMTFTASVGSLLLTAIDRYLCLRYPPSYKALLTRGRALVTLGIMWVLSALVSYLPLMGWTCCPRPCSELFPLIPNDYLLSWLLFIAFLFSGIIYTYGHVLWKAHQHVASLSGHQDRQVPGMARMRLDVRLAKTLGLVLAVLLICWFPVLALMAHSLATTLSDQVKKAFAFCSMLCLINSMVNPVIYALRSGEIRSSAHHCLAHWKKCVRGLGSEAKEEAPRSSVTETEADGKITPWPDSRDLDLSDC
T2 sequence (P21554 whole entry): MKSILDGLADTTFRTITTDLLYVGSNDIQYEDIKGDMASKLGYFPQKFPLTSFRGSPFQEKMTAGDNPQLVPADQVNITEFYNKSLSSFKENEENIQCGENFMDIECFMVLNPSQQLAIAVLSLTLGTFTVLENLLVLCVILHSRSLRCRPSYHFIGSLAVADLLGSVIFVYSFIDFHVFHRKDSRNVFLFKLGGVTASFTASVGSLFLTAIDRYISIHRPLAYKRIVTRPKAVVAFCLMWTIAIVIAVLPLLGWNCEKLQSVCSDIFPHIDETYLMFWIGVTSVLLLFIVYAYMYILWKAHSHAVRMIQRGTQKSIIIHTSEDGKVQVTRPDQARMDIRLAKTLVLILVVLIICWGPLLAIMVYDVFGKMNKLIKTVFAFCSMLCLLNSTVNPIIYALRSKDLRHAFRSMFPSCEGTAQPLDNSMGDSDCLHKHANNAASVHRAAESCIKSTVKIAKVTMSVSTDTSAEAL

As a reminder, the Ki is the equilibrium dissociation constant of an inhibitor or competing ligand from its target. Read a high Ki as weaker binding. Turning to `COc1ccc(C2C(CCS(=O)(=O)c3ccccc3)C(=O)N2c2ccccc2)cc1` (stereo unspecified), the Ki turned out to be 1240 nM at Cannabinoid receptor 2 [1] and 451 nM on Cannabinoid receptor 1 [2].

With `COc1ccc([C@@H]2[C@@H](CCCc3cccnc3)C(=O)N2c2ccccc2)cc1`, the values for the inhibitory constant (Ki) on Cannabinoid receptor 2 [1] and at Cannabinoid receptor 1 [2] were 1090 nM and 244 nM, respectively.

On to `CC(=O)SC(CCc1ccccc1)[C@H]1C(=O)N(c2ccc(F)cc2)[C@@H]1c1ccc(O)cc1` (stereo partly specified), for which the Ki came to 282 nM on Cannabinoid receptor 2 [1] and 52.8 nM on Cannabinoid receptor 1 [2]. Besides, the Ratio Ki in the assay filed under Homo sapiens worked out at 5.

As to `CS(=O)(=O)C(=C1CN(C(c2ccc(Cl)cc2)c2ccc(Cl)cc2)C1)c1cc(F)cc(F)c1`, on Cannabinoid receptor 1 [3], the Ki was less than 100 nM.

Consider `O=C(NN1CCCCC1)c1nn(-c2ccc(Cl)cc2Cl)c(-c2ccc(-c3cccnc3)cc2)c1CO`, for which the Ki at Cannabinoid receptor 2 [4] stood at 2310 nM; at Cannabinoid receptor 1 [3] it was 5.8 nM.

In the case of `COc1ccc(-c2oc3cc(OC)ccc3c2C(=O)c2ccc(C#N)cc2)cc1`, the Ki on Cannabinoid receptor 2 [4] was greater than 10000 nM.

Compound `O=C(NN1CCCCC1)c1nn(-c2ccc(Cl)cc2Cl)c2c1CCCc1cc(Cl)ccc1-2` had a Ki on Cannabinoid receptor 2 [4] of 21 nM.

On to `COc1ccc([C@@H]2[C@@H](Cc3cc4ccccc4o3)C(=O)N2c2ccccc2)cc1`, for which the Ki was found to be 194 nM at Cannabinoid receptor 2 [1] and 839 nM on Cannabinoid receptor 1 [2].

`O=C1[C@@H](CCC(O)c2ccc(F)cc2)[C@H](c2ccc(O)cc2)N1c1ccc(F)cc1` (stereo partly specified): the figures for the Ki on Cannabinoid receptor 2 [1] and at Cannabinoid receptor 1 [2] were greater than 1820 nM and 301 nM, respectively.
